assay: Human HepG2 cell viability assay in 384 well format; type: toxicity, cell-based; design: dose 125 nL, time 70.5 hour; cytotoxicity at 70.5 h: concentration not given beside the values; conditions: HepG2 cells, read-out: Inhibition

Compound	cytotoxicity at 70.5 h [%]
CN(C)[C@@H]1CO[C@H](CNC(=O)C2CCCC2)[C@H]1O	6.3
O=C1N(CC2CC2)CCC12CCN(c1ncccn1)CC2	-3.31
Cc1cc(-c2nn3c(C)nnc3s2)n[nH]1	20
CC(Cn1cccn1)NCc1nc(-c2cccc(Cl)c2)no1 (configuration not stated)	7.24
c1cc2c(cc1CN1CC[C@H]3CO[C@H](CN4CCCC4)[C@H]3C1)OCO2	-1.72
CC(C)[C@@H]1CN(C(=O)CCc2ccc(F)cc2)C[C@H]1C(=O)O	28.6
COc1ccc(O[C@H]2COCCN(Cc3c[nH]c4ccccc34)C2)cc1	1.44
CCOC(=O)[C@]12CCCN(Cc3nccs3)C[C@H]1CN(C(C)=O)C2	-13.3
CC(C)n1nc(CN(C)C)c2c1CN(C(=O)CC1CC1)CC2	-4.55
Cc1ccc(CN(CCCn2ccnc2)Cc2cnn(C)c2)s1	25.9
CC(NC(=O)C1=NN(C)C(=O)CC1)c1ccc(F)cc1F (configuration not stated)	20
CNC(=O)C1(C)CCCN1Cc1cnn(C)c1C (configuration not stated)	-8.11
c1csc(CN2CCCC3(COCCN(Cc4c[nH]nn4)C3)C2)c1 (configuration not stated)	1.75
CNS(=O)(=O)CC(=O)NC(c1cc(C)sc1C)C(C)C (configuration not stated)	2.55
C[C@H]1C(=O)NC[C@H]2CN(Cc3cccc(F)c3)C[C@H]21	-8.78
Cc1nc(CN2CCCC(N(C)c3cnc4ccccc4n3)C2)no1 (configuration not stated)	20.5
Cc1cccc(CC(=O)NS(=O)(=O)c2ccc(F)c(F)c2)c1	8.16
CSc1ccc(CNC2CCN(CCc3ccncc3)CC2)cc1	-1.82
CC(C)[C@H]1CN(Cc2nccn2C)C[C@@H]1NC(=O)COCC(N)=O	-9.51

Compound	cytotoxicity at 70.5 h [%]
CC(C)NC(=O)N[C@H]1C[C@@H](Cc2cc(CN3CCOCC3)on2)C1(C)C	-8.22
CC(Cn1cccn1)NCc1csc(COc2ccccc2)n1 (configuration not stated)	-2.25
N#Cc1ncn(CCS(=O)(=O)c2ccc(Cl)cc2)n1	2.53
Cc1ccc(Oc2ncccc2C(=O)O)c(C)c1	-4.94
CNC(=O)Nc1cc(-c2ccccc2C)nn1CCO	21.1
COC(=O)c1ccc(NC(=O)CN2CCCCC2C2OCCO2)cc1 (configuration not stated)	0.785
Cc1nc(CN2CCCC(Cn3cncn3)C2)no1 (configuration not stated)	15.8
O=C(NCCOc1ccc(Cl)cc1)N1CCS(=O)(=O)CC1	9.92
COc1ccc(CN(C)CCS(=O)(=O)c2ccc(Cl)cc2)cc1OC	-12.9
COCC(=O)N1C[C@@H]2CCCO[C@@H]2[C@H](N(C)Cc2ccco2)C1	-3.25
CCNC(=O)C(C)NC(=O)Nc1ccccc1Cl (configuration not stated)	-6.58
Cc1cc(C)n(CC2CN(Cc3ccccn3)CCO2)n1 (configuration not stated)	1.96
CNc1ncc(CN(C)C(=O)c2cccc(Cn3cccn3)c2)cn1	-6.97
COc1ccc(CN(Cc2cncn2C)CC2CCCO2)cc1 (configuration not stated)	-7.47
Cn1ccc(CN2CC(Cc3nccc4cc[nH]c34)C2)n1	-4.79
COCc1cn(C2CCN(CCC(C)c3ccccc3)CC2)nn1 (configuration not stated)	-12.1
CO[C@H]1CO[C@@]2(CCCN(S(=O)(=O)c3ccccc3)C2)C1	-10.1
Cc1nc(C)n(CC2CCCN2Cc2nc(-c3cccs3)no2)n1 (configuration not stated)	-12.2
COc1cc(C2Nc3cc(Cl)ccc3C3=NCCN32)ccc1O (configuration not stated)	-8.38

Compound	cytotoxicity at 70.5 h [%]
NC(=O)CN1CCC2(CC1)C[C@@H](O)[C@H](c1ccccc1)NC2=O	-0.832
COc1cccc(CN2CCC(c3nn(CCN)c4nccnc34)C2)c1 (configuration not stated)	17
Cc1cnc2c(S(=O)(=O)NC3CCS(=O)(=O)C3)cccc2c1 (configuration not stated)	-8.37
CNc1cncc(C2CCCN2S(=O)(=O)c2ccccc2F)n1 (configuration not stated)	-0.0855
COc1ccc(F)c(NCc2cnn(C3CCS(=O)(=O)C3)c2)c1 (configuration not stated)	8.41
O=C(NC1CCN(c2ncccc2F)C1)c1cccc(-n2ccnn2)c1 (configuration not stated)	-6.27
Cc1cnn(CC2CCCN2C(=O)c2cc3ccccc3[nH]2)c1 (configuration not stated)	8.1
O=C(CC(SC1CCCCC1)C(=O)O)c1ccc(Cl)cc1 (configuration not stated)	-4.64
O=C(c1ncccn1)N1CCC[C@]2(C[C@H](OCC3CC3)CO2)C1	-16.3
Cn1cc(-c2ncnc3c2CCN(C(=O)c2cnccn2)CC3)cn1	1.04
O=c1n(CC2CC2)nc(C2CCNCC2)n1Cc1ccccc1	9.69
CCCC(=O)NCC(=O)Nc1cc(F)ccc1SCC(F)F	2.19
Cn1ncc(CN2CCc3onc(-c4cccc(F)c4)c3C2)c1C1CC1	-11.6
Cc1cncc(C2CCCN(C(=O)c3ccc(C)[nH]c3=O)C2)n1 (configuration not stated)	-4.5
COC(=O)C1(C)CCN(C(=O)NCCc2c(C)[nH]c3ccccc23)C1 (configuration not stated)	-3.86
Cc1[nH]c2nc(CNc3ccccc3Cl)nn2c(=O)c1C	-10.8
COc1c(CNC(C)C(=O)NC2CCCC2)c(C)nn1C (configuration not stated)	-6.91
Cn1c(-c2ccccc2Cl)nc2cc(C(=O)NC(CO)CO)cnc21	-8.01
CCCc1nc(CN2CCN(CC(O)c3ccccc3)CC2)no1 (configuration not stated)	-0.214
